In patent US9676714B2, “Sulfonylindole derivatives and method for preparing the same” (Daewoong Pharmaceutical Co., Ltd., priority 2013, dated 2017):
Where a name gives a salt, the structure may show the parent alone.

Target: T1, proton pump (H+/K+-ATPase) (Sus scrofa, UniProt P19156)
T1 construct: Gastric vesicles were prepared from hog stomach via centrifugal separation; from tissue; host or cells: hog stomach (gastric vesicles, method of Rabon et al. 1988)
Assay: Measurement of inhibitory effects on proton pump (H+/K+-ATPase) activities
Format: biochemical
Conditions: hog gastric vesicles, K+-specific H+/K+-ATPase activity, Tris-HCl buffer pH 7.4, 37° C. for 40 minutes, malachite green Pi readout
Method in brief: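 Hog gastric vesicles in 60 mmol/l Tris-HCl pH 7.4 with 0.5% DMSO were treated with compounds at room temperature; reaction was started with 10 μl of 10 mmol/l ATP stock. Released Pi was read at 570 nm, K+-specific activity taken as the ±K+ difference. IC50 from 4-parameter logistic fit.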

T1 sequence (P19156 whole entry): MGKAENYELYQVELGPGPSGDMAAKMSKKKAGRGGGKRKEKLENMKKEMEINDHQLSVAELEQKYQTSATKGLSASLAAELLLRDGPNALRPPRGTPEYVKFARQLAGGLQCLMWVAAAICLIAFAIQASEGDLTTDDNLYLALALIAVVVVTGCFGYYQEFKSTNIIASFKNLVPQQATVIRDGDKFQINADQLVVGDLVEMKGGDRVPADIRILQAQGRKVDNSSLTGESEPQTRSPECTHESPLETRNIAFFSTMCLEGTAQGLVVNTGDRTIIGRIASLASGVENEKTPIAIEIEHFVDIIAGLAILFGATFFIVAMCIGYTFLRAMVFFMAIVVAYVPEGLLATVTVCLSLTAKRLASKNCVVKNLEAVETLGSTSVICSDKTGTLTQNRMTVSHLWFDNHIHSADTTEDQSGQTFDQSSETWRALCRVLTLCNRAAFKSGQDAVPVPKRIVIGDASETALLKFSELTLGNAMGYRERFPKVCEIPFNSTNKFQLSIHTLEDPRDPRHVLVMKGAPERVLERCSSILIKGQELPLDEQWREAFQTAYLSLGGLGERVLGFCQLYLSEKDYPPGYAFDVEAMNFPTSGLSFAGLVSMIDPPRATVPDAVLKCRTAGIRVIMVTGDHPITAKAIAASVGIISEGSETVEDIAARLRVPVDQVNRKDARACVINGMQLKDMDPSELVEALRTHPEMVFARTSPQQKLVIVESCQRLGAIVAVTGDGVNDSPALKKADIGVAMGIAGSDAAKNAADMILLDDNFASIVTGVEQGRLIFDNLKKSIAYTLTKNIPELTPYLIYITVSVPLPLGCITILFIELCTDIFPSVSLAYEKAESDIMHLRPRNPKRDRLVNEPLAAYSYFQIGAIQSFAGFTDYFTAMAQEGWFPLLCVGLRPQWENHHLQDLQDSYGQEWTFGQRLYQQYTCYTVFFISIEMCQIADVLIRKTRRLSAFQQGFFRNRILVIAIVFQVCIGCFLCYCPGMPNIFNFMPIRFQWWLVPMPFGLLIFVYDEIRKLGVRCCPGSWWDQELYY
T1 sequence (P18434 whole entry partner): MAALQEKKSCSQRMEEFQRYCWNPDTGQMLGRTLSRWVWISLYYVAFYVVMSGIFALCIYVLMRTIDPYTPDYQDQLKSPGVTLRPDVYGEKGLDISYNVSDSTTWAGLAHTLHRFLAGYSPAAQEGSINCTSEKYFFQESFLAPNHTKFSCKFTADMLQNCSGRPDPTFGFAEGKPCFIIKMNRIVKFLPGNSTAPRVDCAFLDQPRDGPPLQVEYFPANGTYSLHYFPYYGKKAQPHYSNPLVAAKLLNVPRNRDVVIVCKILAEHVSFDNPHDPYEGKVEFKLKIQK

First: CNCc1cn(S(=O)(=O)c2cccnc2)c2cc(-c3cccc(Cl)c3)ccc12 [Example 244, 1-(6-(3-chlorophenyl)-1-(pyridin-3-ylsulfonyl)-1H-indol-3-yl)-N-methylmethanamine]
Second: CNCc1cn(S(=O)(=O)c2cccnc2)c2cc(-c3cccc(NC(C)=O)c3)ccc12 [Example 245, N-(3-(3-((methylamino)methyl)-1-(pyridin-3-ylsulfonyl)-1H-indol-6-yl)phenyl)acetamide]
The IC50 of the first is 5.3-fold lower: 2.44 µM for the first, 12.9 µM for the second.

First: CNCc1cn(S(=O)(=O)c2cccnc2)c2cc(-c3ccc(N)cc3)ccc12 [Example 246, 4-(3-((methylamino)methyl)-1-(pyridin-3-ylsulfonyl)-1H-indol-6-yl)aniline]
Second: CNCc1cn(S(=O)(=O)c2cccnc2)c2cc(-c3ccc(OC)cc3)ccc12 [Example 251, 1-(6-(4-methoxyphenyl)-1-(pyridin-3-ylsulfonyl)-1H-indol-3-yl)-N-methylmethanamine hydrochloride]
The IC50 of the first is 4.9-fold lower: 0.53 µM for the first, 2.6 µM for the second. The first is the more potent here.

Compared with `CNCc1cn(S(=O)(=O)c2cccnc2)c2cc(-c3ccc(-c4ccccc4)cc3)ccc12` [Example 247, 1-(6-([1,1′-biphenyl]-4-yl)-1-(pyridin-3-ylsulfonyl)-1H-indol-3-yl)-N-methylmethanamine], `CNCc1cn(S(=O)(=O)c2cccnc2)c2cc(-c3ccc(F)nc3)ccc12` [Example 255, 1-(6-(6-fluoropyridin-3-yl)-1-(pyridin-3-ylsulfonyl)-1H-indol-3-yl)-N-methylmethanamine hydrochloride] is 2.8-fold higher in IC50: 4.15 µM for the first, 11.7 µM for the second. The first is the more potent here.

`CNCc1cn(S(=O)(=O)c2cccnc2)c2cc(-c3ccc(OC)nc3)ccc12` [Example 248, 1-(6-(6-methoxypyridin-3-yl)-1-(pyridin-3-ylsulfonyl)-1H-indol-3-yl)-N-methylmethanamine] and `CNCc1cn(S(=O)(=O)c2cccnc2)c2cc(-c3cnc(F)c(C)c3)ccc12` [Example 257, 1-(6-(6-fluoro-5-methylpyridin-3-yl)-1-(pyridin-3-ylsulfonyl)-1H-indol-3-yl)-N-methylmethanamine hydrochloride] are within 1.5-fold of each other in IC50: 20 µM for the first, 14.2 µM for the second.

`CNCc1cn(S(=O)(=O)c2cccnc2)c2cc(-c3cnn(C)c3)ccc12` [Example 249, N-methyl-1-(6-(1-methyl-1H-pyrazol-4-yl)-1-(pyridin-3-ylsulfonyl)-1H-indol-3-yl)methanamine] and `CNCc1cn(S(=O)(=O)c2cccnc2)c2cc(-c3ccnn3C)ccc12` [Example 250, N-methyl-1-(6-(1-methyl-1H-pyrazol-5-yl)-1-(pyridin-3-ylsulfonyl)-1H-indol-3-yl)methanamine] are within 1.5-fold of each other in IC50: 50 µM for the first, 40 µM for the second.

First: CNCc1cn(S(=O)(=O)c2cccnc2)c2cc(-c3ccc(C)cc3F)ccc12 [Example 252, 1-(6-(2-fluoro-4-methylphenyl)-1-(pyridin-3-ylsulfonyl)-1H-indol-3-yl)-N-methylmethanamine hydrochloride]
Second: CNCc1cn(S(=O)(=O)c2cccnc2)c2cc(-c3ccc(C)cc3Cl)ccc12 [Example 253, 1-(6-(2-chloro-4-methylphenyl)-1-(pyridin-3-ylsulfonyl)-1H-indol-3-yl)-N-methylmethanamine hydrochloride]
The IC50 of the first is 2-fold higher: 1 µM for the first, 0.49 µM for the second. The second is the more potent here.

Compared with `CNCc1cn(S(=O)(=O)c2cccnc2)c2cc(-c3cccnc3C(F)(F)F)ccc12` [Example 254, N-methyl-1-(1-(pyridin-3-ylsulfonyl)-6-(2-(trifluoromethyl)pyridin-3-yl)-1H-indol-3-yl)methanamine hydrochloride], `CNCc1cn(S(=O)(=O)c2cccnc2)c2cc(-c3ccnc(F)c3)ccc12` [Example 256, 1-(6-(2-fluoropyridin-4-yl)-1-(pyridin-3-ylsulfonyl)-1H-indol-3-yl)-N-methylmethanamine hydrochloride] is 2.2-fold higher in IC50: 9.15 µM for the first, 20 µM for the second. The first is the more potent here.

In the case of `CNCc1cn(S(=O)(=O)c2cccnc2)c2cc(-c3cncnc3)ccc12` [Example 258, N-methyl-1-(1-(pyridin-3-ylsulfonyll)-6-(pyrimidin-5-yl)-1H-indol-3-yl)methanamine hydrochloride], the IC50 is reported as 20 µM.
